target: Human recombinant carboxy-terminal his-tagged LDHA (amino acids 2-332) (Homo sapiens, UniProt P00338); experiment: LDHA enzyme inhibition assay (NADH fluorescence); conditions: LDHA IC50 (μM), 1 nM LDHA, NADH and pyruvate, stereochemistry of tested sample given
Protocol: Test compounds were diluted in 100% DMSO with 1:3 serial dilutions. […] For the enzyme reaction, serially diluted compounds were added to a mixture of enzyme and NADH. […] Following the baseline read, pyruvate was added to the assay plates and the plates were read with excitation 340 nm and emission 480 nm for 10 minutes every 2.5 seconds. A suitable linear timeframe was selected (150-400 s) to calculate the slope of each concentration tested. The raw data were fitted to 4-parameter dose-response curves using the following equation:
fit=(A+((B−A)/(1+((C/x)̂D))))
inv=(C/((((B−A)/(y−A))−)̂(1/D)))
res=(y−fit) • where A=minimum y, B=maximum y, C=50% y max, and D=slope factor.
The curve bottom was set to the background rate (initial 5 second recording prior to addition of pyruvate) and curve top was set to no inhibitor (DMSO only) control wells rate.
The compounds of the present invention were tested for their capacity to inhibit LDHA activity and activation as described in the enzyme inhibition assay described above.

| SMILES | IC50 [µM] |
| --- | --- |
| O=C1CC(c2ccsc2)(c2cccc(OCC3CCCO3)n2)NC(=O)C1Sc1ccccc1Cl (single isomer, unassigned) [Example 238, 3-(2-chlorophenyl)sulfanyl-6-[6-(tetrahydrofuran-2-ylmethoxy)-2-pyridyl]-6-(3-thienyl)piperidine-2,4-dione] | 0.018 |
| O=C1CC(c2ccsc2)(c2cccc(OCC3CCCO3)n2)NC(=O)C1Sc1ccccc1Cl (single isomer, unassigned) [Example 239, 3-(2-chlorophenyl)sulfanyl-6-[6-(tetrahydrofuran-2-ylmethoxy)-2-pyridyl]-6-(3-thienyl)piperidine-2,4-dione] | 0.015 |
| CC(CC1CC1)Oc1cccc(C2(c3ccsc3)CC(=O)C(Sc3ccccc3Cl)C(=O)N2)n1 (single isomer, unassigned) [Example 241, 3-(2-chlorophenyl)sulfanyl-6-[6-(2-cyclopropyl-1-methyl-ethoxy)-2-pyridyl]-6-(3-thienyl)piperidine-2,4-dione] | 0.003 |
| O=C1CC(c2ccsc2)(c2cccc(OCC3CCCC3)n2)NC(=O)C1Sc1ccccc1Cl (single isomer, unassigned) [Example 243, 3-(2-chlorophenyl)sulfanyl-6-[6-(cyclopentylmethoxy)-2-pyridyl]-6-(3-thienyl) piperidine-2,4-dione] | 0.001 |
| O=C1CC(c2ccsc2)(c2cccc(OCC3CCC(CO)CC3)n2)NC(=O)C1Sc1ccccc1Cl (single isomer, unassigned) [Example 244, 3-(2-chlorophenyl)sulfanyl-6-[6-[[4-(hydroxymethyl)cyclohexyl]methoxy]-2-pyridyl]-6-(3-thienyl) piperidine-2,4-dione] | 0.023 |
| O=C1CC(c2ccsc2)(c2cccc(OCC(F)F)n2)NC(=O)C1Sc1ccccc1Cl (single isomer, unassigned) [Example 245, 3-(2-chlorophenyl)sulfanyl-6-[6-(2,2-difluoroethoxy)-2-pyridyl]-6-(3-thienyl) piperidine-2,4-dione] | 0.018 |
| CC(CC1CC1)Oc1cccc(C2(c3ccsc3)CC(=O)C(Sc3ccccc3Cl)C(=O)N2)n1 (single isomer, unassigned) [Example 251, 3-(2-chlorophenyl)sulfanyl-6-[6-(2-cyclopropyl-1-methyl-ethoxy)-2-pyridyl]-6-(3-thienyl) piperidine-2,4-dione] | 0.019 |
| O=C1CC(c2ccsc2)(c2cccc(OCC3CCCC3)n2)NC(=O)C1Sc1ccccc1Cl (single isomer, unassigned) [Example 252, 3-(2-chlorophenyl)sulfanyl-6-[6-(cyclopentyl-methoxy)-2-pyridyl]-6-(3-thienyl)pipereidine-2,4-dione] | 0.079 |
| O=C1CC(c2ccsc2)(c2cccc(OCC(F)F)n2)NC(=O)C1Sc1ccccc1Cl (single isomer, unassigned) [Example 254, 3-(2-chlorophenyl)sulfanyl-6-[6-(2,2-difluoroethoxy)-2-pyridyl]-6-(3-thienyl) piperidine-2,4-dione] | 0.047 |
| O=C1CC(c2ccsc2)(c2cccc(Cc3ccc(F)c(F)c3)n2)NC(=O)C1Sc1ccccc1Cl (single isomer, unassigned) [Example 256, 3-((2-chlorophenyl)thio)-6-(6-(3,4-difluorobenzyl)pyridin-2-yl)-6-(thiophen-3-yl)piperidine-2,4-dione] | 0.062 |
| CN(c1ccc(F)cc1)c1cccc(C2(c3ccsc3)CC(=O)C(Sc3ccccc3Cl)C(=O)N2)n1 (single isomer, unassigned) [Example 262, 3-((2-chlorophenyl)thio)-6-(6-((4-fluorophenyl) (methyl)amino)pyridin-2-yl)-6-(thiophen-3-yl)piperidine-2,4-dione] | 0.104 |
| CN(c1ccc(F)cc1)c1cccc(C2(c3ccsc3)CC(=O)C(Sc3ccccc3Cl)C(=O)N2)n1 (single isomer, unassigned) [Example 265, 3-((2-chlorophenyl)thio)-6-(6-((4-fluorophenyl) (methyl)amino)pyridin-2-yl)-6-(thiophen-3-yl) piperidine-2,4-dione] | 0.022 |
| CN(c1ccc(F)cc1)c1cccc(C2(c3ccsc3)CC(=O)C(Sc3ccccc3Cl)C(=O)N2)n1 (single isomer, unassigned) [Example 266, 3-((2-chlorophenyl)thio)-6-(6-((4-fluorophenyl) (methyl)amino)pyridin-2-yl)-6-(thiophen-3-yl) piperidine-2,4-dione] | 0.099 |
| O=C1CC(c2ccsc2)(c2cccc(CCc3ccc(F)cc3)n2)NC(=O)C1Sc1ccccc1Cl (single isomer, unassigned) [Example 268, 3-((2-chlorophenyl)thio)-6-(6-(4-fluorophenethyl)pyridin-2-yl)-6-(thiophen-3-yl)piperidine-2,4-dione] | 0.402 |
| O=C1CC(c2ccsc2)(c2cccc(Cc3ccc(F)c(F)c3)n2)NC(=O)C1Sc1ccccc1Cl (single isomer, unassigned) [Example 281, 3-((2-chlorophenyl)thio)-6-(6-(3,4-difluorobenzyl)pyridin-2-yl)-6-(thiophen-3-yl)piperidine-2,4-dione] | 0.189 |
| O=C1CC(c2ccsc2)(c2cccc(Cc3ccc(F)c(F)c3)n2)NC(=O)C1Sc1ccccc1Cl (single isomer, unassigned) [Example 282, 3-((2-chlorophenyl)thio)-6-(6-(3,4-difluorobenzyl)pyridin-2-yl)-6-(thiophen-3-yl)piperidine-2,4-dione] | 0.012 |
| COc1cc(Cc2cccc(C3(c4ccsc4)CC(=O)C(Sc4ccccc4Cl)C(=O)N3)n2)ccc1F (single isomer, unassigned) [Example 283, 3-((2-chlorophenyl)thio)-6-(6-(4-fluoro-3-methoxy-benzyl)pyridin-2-yl)-6-(thiophen-3-yl)piperidine-2,4-dione] | 0.037 |
| COc1cc(Cc2cccc(C3(c4ccsc4)CC(=O)C(Sc4ccccc4Cl)C(=O)N3)n2)ccc1F (single isomer, unassigned) [Example 284, 3-((2-chlorophenyl)thio)-6-(6-(4-fluoro-3-methoxy-benzyl)pyridin-2-yl)-6-(thiophen-3-yl)piperidine-2,4-dione] | 0.041 |
| O=C1CC(c2ccsc2)(c2cccc(NCc3ccc(F)cc3)n2)NC(=O)C1Sc1ccccc1Cl (single isomer, unassigned) [Example 285, 3-((2-chlorophenyl)thio)-6-(6-((4-fluorobenzyl)amino)pyridin-2-yl)-6-(thiophen-3-yl)piperidine-2,4-dione] | 0.01 |
| O=C1CC(c2ccsc2)(c2cccc(OCc3ccc(F)cc3)n2)NC(=O)C1Sc1ccccc1Cl (single isomer, unassigned) [Example 289, 3-((2-chlorophenyl)thio)-6-(6-((4-fluorobenzyl)oxy)pyridin-2-yl)-6-(thiophen-3-yl)piperidine-2,4-dione] | 0.022 |
| O=C1CC(c2ccsc2)(c2cccc(NCc3ccc(F)cc3)n2)NC(=O)C1Sc1ccccc1Cl (single isomer, unassigned) [Example 291, 3-((2-chlorophenyl)thio)-6-(6-((4-fluorobenzyl)amino)pyridin-2-yl)-6-(thiophen-3-yl)piperidine-2,4-dione] | 0.093 |
| O=C1CC(c2ccsc2)(c2cccc(NCc3ccc(F)cc3)n2)NC(=O)C1Sc1ccccc1Cl (single isomer, unassigned) [Example 292, 3-((2-chlorophenyl)thio)-6-(6-((4-fluorobenzyl)amino)pyridin-2-yl)-6-(thiophen-3-yl)piperidine-2,4-dione] | 0.037 |

— patent publication US20170001990A1 (Genentech, Inc., priority 2014, published 2017)
